According to patent publication US12172995B2, “Substituted indole and indazole compounds” (BRISTOL-MYERS SQUIBB COMPANY, priority 2018, dated 2024):

Key:
Type in all cases: cell-based
[1] = target: T1, human TLR7 (Homo sapiens, UniProt Q9NYK1); assay: TLR7 inhibition reporter assay (HEK-Blue SEAP); conditions: HEK-Blue cells overexpressing human TLR7, stimulated with gardiquimod 7.5 μM, 22 hour incubation
T1 construct: host or cells: HEK-Blue cells
T1 sequence (Q9NYK1 27-1049): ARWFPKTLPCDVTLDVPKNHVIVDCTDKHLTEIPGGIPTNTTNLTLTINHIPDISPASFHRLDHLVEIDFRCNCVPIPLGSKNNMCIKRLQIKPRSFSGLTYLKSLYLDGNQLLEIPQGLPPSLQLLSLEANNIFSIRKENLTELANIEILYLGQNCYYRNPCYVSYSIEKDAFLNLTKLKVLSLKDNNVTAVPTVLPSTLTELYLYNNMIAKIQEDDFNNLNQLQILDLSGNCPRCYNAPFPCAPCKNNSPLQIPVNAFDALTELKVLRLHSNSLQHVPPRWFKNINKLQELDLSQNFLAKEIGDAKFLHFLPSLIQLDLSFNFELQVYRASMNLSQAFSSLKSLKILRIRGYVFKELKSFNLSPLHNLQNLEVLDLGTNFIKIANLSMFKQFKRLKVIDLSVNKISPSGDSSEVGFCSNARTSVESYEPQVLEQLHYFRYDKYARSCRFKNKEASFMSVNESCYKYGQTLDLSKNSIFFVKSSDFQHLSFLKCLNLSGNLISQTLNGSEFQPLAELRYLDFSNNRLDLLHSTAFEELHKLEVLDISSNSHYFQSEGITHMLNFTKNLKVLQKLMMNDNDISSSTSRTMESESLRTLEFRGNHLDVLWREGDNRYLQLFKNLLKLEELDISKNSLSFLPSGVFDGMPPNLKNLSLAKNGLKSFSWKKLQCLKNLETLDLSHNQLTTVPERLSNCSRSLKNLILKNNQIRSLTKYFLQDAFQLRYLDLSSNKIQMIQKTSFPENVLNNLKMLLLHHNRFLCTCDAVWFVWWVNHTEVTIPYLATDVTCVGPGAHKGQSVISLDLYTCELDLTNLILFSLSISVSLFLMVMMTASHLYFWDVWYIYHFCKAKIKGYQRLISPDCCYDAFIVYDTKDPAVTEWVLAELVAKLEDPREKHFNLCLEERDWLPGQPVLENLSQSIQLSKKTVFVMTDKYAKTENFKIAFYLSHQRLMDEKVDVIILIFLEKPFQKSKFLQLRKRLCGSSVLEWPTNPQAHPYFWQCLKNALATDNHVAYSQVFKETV
Summary of the method: (§1)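 Reporter HEK-Blue lines; cpd 0.05 nM–50 μM, 30 min preincubation RT; agonist: TLR7 gardiquimod 7.5 μM, TLR8 R848 15.9 μM, TLR9 ODN2006 5 nM; 22 h 37 °C; SEAP detected colorimetrically; % inhib vs known inhibitor.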

[2] = target: T2, human TLR8 (Homo sapiens, UniProt Q9NR97); assay: TLR8 inhibition reporter assay (HEK-Blue SEAP); conditions: HEK-Blue cells overexpressing human TLR8, stimulated with R848 15.9 μM, 22 hour incubation
T2 construct: host or cells: HEK-Blue cells
T2 sequence (Q9NR97 27-1041): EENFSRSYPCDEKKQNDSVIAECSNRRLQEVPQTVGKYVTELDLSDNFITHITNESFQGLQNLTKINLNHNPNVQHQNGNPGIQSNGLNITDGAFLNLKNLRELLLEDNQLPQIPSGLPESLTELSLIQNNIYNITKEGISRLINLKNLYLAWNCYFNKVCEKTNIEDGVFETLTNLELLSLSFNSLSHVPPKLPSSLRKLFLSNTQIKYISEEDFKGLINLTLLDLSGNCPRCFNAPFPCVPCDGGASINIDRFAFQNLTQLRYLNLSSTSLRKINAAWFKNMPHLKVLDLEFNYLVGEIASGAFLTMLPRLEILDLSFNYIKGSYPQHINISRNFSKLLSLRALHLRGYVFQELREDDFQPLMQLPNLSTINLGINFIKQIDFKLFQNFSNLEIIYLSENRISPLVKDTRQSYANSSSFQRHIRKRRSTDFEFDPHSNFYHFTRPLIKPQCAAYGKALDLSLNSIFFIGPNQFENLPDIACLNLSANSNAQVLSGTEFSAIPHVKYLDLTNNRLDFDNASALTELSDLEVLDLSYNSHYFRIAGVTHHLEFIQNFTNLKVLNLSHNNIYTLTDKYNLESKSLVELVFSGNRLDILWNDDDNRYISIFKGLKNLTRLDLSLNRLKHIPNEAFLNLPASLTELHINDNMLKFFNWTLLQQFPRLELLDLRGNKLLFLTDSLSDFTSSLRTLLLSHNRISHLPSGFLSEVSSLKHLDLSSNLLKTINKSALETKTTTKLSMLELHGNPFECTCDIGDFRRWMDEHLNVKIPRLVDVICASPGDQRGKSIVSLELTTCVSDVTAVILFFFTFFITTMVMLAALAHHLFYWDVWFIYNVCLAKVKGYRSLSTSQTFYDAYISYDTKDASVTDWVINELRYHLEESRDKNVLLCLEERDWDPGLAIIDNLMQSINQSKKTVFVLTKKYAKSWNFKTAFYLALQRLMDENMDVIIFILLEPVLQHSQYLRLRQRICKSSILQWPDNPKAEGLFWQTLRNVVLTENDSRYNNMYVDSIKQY
Summary of the method: as §1

[3] = target: T3, human TLR9 (Homo sapiens, UniProt Q9NR96); assay: TLR9 inhibition reporter assay (HEK-Blue SEAP); conditions: HEK-Blue cells overexpressing human TLR9, stimulated with ODN2006 5 nM, 22 hour incubation
T3 construct: host or cells: HEK-Blue cells
T3 sequence (Q9NR96 26-1032): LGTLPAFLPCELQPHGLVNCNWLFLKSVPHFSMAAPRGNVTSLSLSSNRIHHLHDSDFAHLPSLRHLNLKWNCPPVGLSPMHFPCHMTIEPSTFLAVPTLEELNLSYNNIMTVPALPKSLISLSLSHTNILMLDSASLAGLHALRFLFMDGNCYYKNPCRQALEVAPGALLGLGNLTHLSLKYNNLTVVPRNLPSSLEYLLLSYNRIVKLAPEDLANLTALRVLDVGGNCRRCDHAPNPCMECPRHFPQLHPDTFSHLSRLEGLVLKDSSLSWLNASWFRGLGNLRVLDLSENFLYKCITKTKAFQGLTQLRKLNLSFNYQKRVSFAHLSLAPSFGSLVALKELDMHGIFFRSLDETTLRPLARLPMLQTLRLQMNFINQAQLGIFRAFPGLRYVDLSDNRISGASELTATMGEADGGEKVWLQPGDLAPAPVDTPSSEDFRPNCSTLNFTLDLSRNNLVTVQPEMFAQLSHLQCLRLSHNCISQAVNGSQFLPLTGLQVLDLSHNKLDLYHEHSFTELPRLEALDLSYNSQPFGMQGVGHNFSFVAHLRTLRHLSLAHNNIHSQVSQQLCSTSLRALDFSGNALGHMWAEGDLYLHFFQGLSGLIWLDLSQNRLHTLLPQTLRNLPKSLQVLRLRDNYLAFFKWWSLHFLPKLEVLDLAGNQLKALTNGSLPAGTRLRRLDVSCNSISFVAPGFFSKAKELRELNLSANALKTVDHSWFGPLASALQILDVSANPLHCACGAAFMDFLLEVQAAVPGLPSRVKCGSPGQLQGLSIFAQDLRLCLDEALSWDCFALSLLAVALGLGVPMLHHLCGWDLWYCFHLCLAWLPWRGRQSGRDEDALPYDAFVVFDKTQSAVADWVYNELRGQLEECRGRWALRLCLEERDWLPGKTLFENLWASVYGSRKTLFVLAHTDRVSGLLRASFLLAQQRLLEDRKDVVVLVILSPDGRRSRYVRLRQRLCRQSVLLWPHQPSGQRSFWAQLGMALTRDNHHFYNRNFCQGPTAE
Summary of the method: as §1

| SMILES | IC50 [1] | IC50 [2] | IC50 [3] |
| --- | --- | --- | --- |
| Cc1cc(-c2cc(C)c3ncnn3c2)cc2[nH]nc(C3CCN(CC(=O)N(C)C)CC3)c12 [Example 76, N,N-dimethyl-2-(4-(4-methyl-6-(8-methyl-[1,2,4]triazolo[1,5-a]pyridin-6-yl)-1H-indazol-3-yl)piperidin-1-yl) acetamide] | 6.9 nM | 37.8 nM | 2110 nM |
| Cc1cc(-c2cc(C)c3ncnn3c2)cc2[nH]nc(C3CCN(CC(C)(C)O)CC3)c12 [Example 77, 2-methyl-1-(4-(4-methyl-6-(8-methyl-[1,2,4]triazolo[1,5-a]pyridin-6-yl)-1H-indazol-3-yl)piperidin-1-yl)propan-2-ol] | 11.1 nM | 10.9 nM | 2190 nM |
| Cc1cc(-c2cc(C)c3ncnn3c2)cc2[nH]nc(C3CCN(C4CCOCC4)CC3)c12 [Example 78, 8-methyl-6-(4-methyl-3-(1-(tetrahydro-2H-pyran-4-yl)piperidin-4-yl)-1H-indazol-6-yl)-[1,2,4]triazolo[1,5-a]pyridine] | 92.2 nM | 252 nM | 24500 nM |
| Cc1cc(-c2cc(C)c3ncnn3c2)cc2[nH]nc(C3CCN(C)CC3)c12 [Example 79, 8-methyl-6-(4-methyl-3-(1-methylpiperidin-4-yl)-1H-indazol-6-yl)-[1,2,4]triazolo[1,5-a]pyridine] | 10.3 nM | 53.8 nM | 6050 nM |
| Cc1cc(-c2cc(C)c3ncnn3c2)cc2[nH]nc(C3CCC(N(C)C)CC3)c12 (stereo not drawn) [Example 80, N,N-dimethyl-4-(4-methyl-6-(8-methyl-[1,2,4]triazolo[1,5-a]pyridin-6-yl)-1H-indazol-3-yl) cyclohexan-1-amine] | 3.8 nM | 2.5 nM | 2840 nM |
| CCc1cc2c(C3CCN(C4CCOCC4)CC3)n[nH]c2cc1-c1cc(C)c2ncnn2c1 [Example 88, 6-(5-ethyl-3-(1-(tetrahydro-2H-pyran-4-yl)piperidin-4-yl)-1H-indazol-6-yl)-8-methyl-[1,2,4]triazolo[1,5-a]pyridine] | 3.7 nM | 0.2 nM | 14200 nM |

The next lines start with the values.

| IC50 [1] | IC50 [2] | IC50 [3] | SMILES |
| --- | --- | --- | --- |
| 1.3 nM | 5.3 nM | 1830 nM | Cc1cc(-c2cc(C)c3ncnn3c2)cc2[nH]nc(C3CCC(N(C)C)CC3)c12 (stereo not drawn) [Example 81, N,N-dimethyl-4-(4-methyl-6-(8-methyl-[1,2,4]triazolo[1,5-a]pyridin-6-yl)-1H-indazol-3-yl)cyclohexan-1-amine] |
| 1.6 nM | 0.4 nM | 2200 nM | CCc1cc2c(C3CCNCC3)n[nH]c2cc1-c1cc(C)c2ncnn2c1 [Example 82, 6-(5-ethyl-3-(piperidin-4-yl)-1H-indazol-6-yl)-8-methyl-[1,2,4]triazolo[1,5-a]pyridine] |
| 45 nM | 5.5 nM | 8010 nM | Cc1cc2c(C3CCNCC3)n[nH]c2cc1-c1cc(C)c2ncnn2c1C [Example 83, 5,8-dimethyl-6-(5-methyl-3-(piperidin-4-yl)-1H-indazol-6-yl)-[1,2,4]triazolo[1,5-a]pyridine] |
| 33.4 nM | 15.7 nM | 5610 nM | Cc1cc2c(C3CCNCC3)n[nH]c2cc1-c1cc(C#N)c2ncnn2c1 [Example 84, 6-(5-methyl-3-(piperidin-4-yl)-1H-indazol-6-yl)-[1,2,4]triazolo[1,5-a]pyridine-8-carbonitrile] |
| 33 nM | 1.5 nM | 3940 nM | Cc1cc2c(C3CCNCC3)n[nH]c2cc1-c1cc(-c2cncnc2)c2ncnn2c1 [Example 85, 6-(5-methyl-3-(piperidin-4-yl)-1H-indazol-6-yl)-8-(pyrimidin-5-yl)-[1,2,4]triazolo[1,5-a]pyridine] |
| 5.8 nM | 21.8 nM | 1290 nM | COc1cc(-c2cc(C)c3ncnn3c2)cc2[nH]nc(C3CCNCC3)c12 [Example 86, 6-(4-methoxy-3-(piperidin-4-yl)-1H-indazol-6-yl)-8-methyl-[1,2,4]triazolo[1,5-a]pyridine] |
| 6.3 nM | 0.6 nM | 11600 nM | CCc1cc2c(C3CCN(C(=O)CN(C)C)CC3)n[nH]c2cc1-c1cc(C)c2ncnn2c1 [Example 87, 2-(dimethylamino)-1-(4-(5-ethyl-6-(8-methyl-[1,2,4]triazolo[1,5-a]pyridin-6-yl)-1H-indazol-3-yl)piperidin-1-yl)ethan-1-one] |
| 2.6 nM | 0.1 nM | 7940 nM | CCc1cc2c(C3CCN(C(C)C)CC3)n[nH]c2cc1-c1cc(C)c2ncnn2c1 [Example 90, 6-(5-ethyl-3-(1-isopropylpiperidin-4-yl)-1H-indazol-6-yl)-8-methyl-[1,2,4]triazolo[1,5-a]pyridine] |
| 3.7 nM | 0.4 nM | 14500 nM | CCc1cc2c(C3CCN(CC(=O)N(C)C)CC3)n[nH]c2cc1-c1cc(C)c2ncnn2c1 [Example 91, 2-(4-(5-ethyl-6-(8-methyl-[1,2,4]triazolo[1,5-a]pyridin-6-yl)-1H-indazol-3-yl)piperidin-1-yl)-N,N-dimethylacetamide] |
